# Test results published in patent US20140328893A1, “NUTLIN COMPOUNDS FOR USE IN THE TREATMENT OF PULMONARY HYPERTENSION” (Institut National de la Sante et de la Recherche Medicale …, priority 2011, published 2014).
# Experiments:
# p53 pathway [1] = test: Lung p53 and p21 levels in hypoxic mice (Western blotting, RT-qPCR); assay type: in vivo
# Protocol: (§1) Nutlin-3 was administered at the increasing dosages of 6, 12, and 25 mg/Kg/day by intraperitoneal injection. At completion of treatment, lungs were removed and prepared for histological or Western blot analyses.
# (§2) p53, p16, p21, caspase and MDM2 proteins were detected and measured in lung tissues and/or cells using Western blotting. Levels of p21, Bax, and PUMA mRNA in lung tissues and/or cells were determined using RT-qPCR. Total mRNA was extracted from lung tissues and PA-SMC using RNeasy Mini Kit (Qiagen, ZA Courtaboeuf, France). First-strand cDNA was synthesized in reversed transcribed samples, as follows: 1 μg total RNA isolated from cells or lung tissues, 200 U/μL SuperScrip II RT (Invitrogen, Life Technologies, Cergy-Pontoise, France), 100 ng Random primers and 10 mM mixed dNTP. Quantitative PCR was performed in a 7900HT Real-Time PCR system (Applied Biosystems, ZA Courtaboeuf, France), using SYBR green Mix from Invitrogen.
# SM22-5-HTT+ mice = test: Pulmonary hypertension in SM22-5-HTT+ mice; assay type: in vivo; details: 12 mg/Kg/day
# Protocol: (§3) Wild-type mice aged 15-20 weeks were randomly allocated to room air or chronic hypoxia. Transgenic animals expressing the human 5-HTT gene in smooth muscle (SM22-5-HTT+ mice) were produced as previously described. All animal care and procedures were in accordance with institutional guidelines.
# as §1
# Mice exposed previously to hypoxia or room air or SM22-5-HTT+ mice were anaesthetized. After incision of the abdomen, a 26-gauge needle connected to a pressure transducer was inserted into the right ventricle through the diaphragm, and right ventricular systolic pressure (RVSP) was recorded immediately. Then, the thorax was opened and the lungs and heart were removed. […] The percentage of pulmonary vessels in each muscularization category was determined by dividing the number of vessels in that category by the total number counted in the relevant group of animals. For fully muscular vessels, video images were obtained and arterial diameters were measured using computerized image-analysis software. Percent wall thickness was then calculated as the diameter of the external elastic lamina minus the diameter of the internal lamina divided by the diameter of the external elastic lamina.
# cultured human PA-SMC [2] = test: PA-SMC senescence (beta-galactosidase-positive cells); assay type: cell-based; details: 48 hours incubation
# Protocol: (§4) Cultured PA-SMCs were collected from pulmonary arteries of patients undergoing lung surgery for localized lung tumours. To determine the phenotypic characteristics of cultured PA-SMCs, the cells from each culture were assessed for expression of musclespecific contractile and cytoskeletal proteins, including smooth muscle cell α-actin and desmin.
# (§5) To assess the effects of nutlin on cell senescence, the percentage of beta-galactosidase (β-gap)-positive cells was measured after 48 hours incubation with nutlin-3 in presence or absence of vehicle or PDGF. The amounts of p53, p16, and p21 proteins or mRNA were determined by western blotting o by RT-qPCR, respectively.
# p53 pathway [3] = test: Lung p53 and p21 levels in SM22-5-HTT+ mice (Western blotting, RT-qPCR); assay type: in vivo
# Protocol: as §1, §2
# cultured human PA-SMC [4] = test: PA-SMC proliferation (MTT); assay type: cell-based; details: 2.5-10 μM, 48 hours
# Protocol: as §4
# To assess the effects of nutlin-3 on PASMC proliferation, cells were exposed to increasing concentration of nutlin-3a (2.5-10 μM) or vehicle in serum-free medium or in presence of PDGF-BB (50 ng/ml). After 48 hours, tetrazolium salt (MTT), (Sigma, Lyon, France) was added to each well (0.2 mg/ml). After 4 hours incubation at 37° C., the culture medium was removed and formazan crystals were solubilized by adding 500 μL of DMSO. Tetrazolium salt reduction to formazan within the cells was quantified by spectrophotometry at 520 nm.
# [5] = tested on: mice exposed to chronic hypoxia; test: Pulmonary hypertension in mice exposed to chronic hypoxia; assay type: in vivo
# Protocol: as §3, §1
# Mice were exposed to chronic hypoxia (10% O2) in a ventilated chamber (Biospherix, N.Y., USA). The hypoxic environment was established by flushing the chamber with a mixture of room air and nitrogen, and the gas was recirculated. The chamber environment was monitored using an oxygen analyzer. Carbon dioxide was removed by soda lime granules, and excess humidity was prevented by cooling of the recirculation circuit. Normoxic mice were kept in the same room, with the same light-dark cycle.
# Mice exposed previously to hypoxia or room air or SM22-5-HTT+ mice were anaesthetized. After incision of the abdomen, a 26-gauge needle connected to a pressure transducer was inserted into the right ventricle through the diaphragm, and right ventricular systolic pressure (RVSP) was recorded immediately. Then, the thorax was opened and the lungs and heart were removed. The right ventricle (RV) was dissected from the left ventricle plus septum (LV+S), and these dissected samples were weighed for determination of Fulton's index (RV/LV+S). The lungs were fixed by intratracheal infusion of 4% aqueous buffered formalin. A midsagittal slice of the right lung was processed for paraffin embedding. Sections 5 μm in thickness were cut and stained with hematoxylin-phloxine-saffron for examination by light microscopy. In each mouse, a total of 20 to 30 intraacinar vessels accompanying either alveolar ducts or alveoli were examined by an observer who was blinded to the treatment or genotype. Each vessel was categorized as nonmuscular (no evidence of vessel wall muscularization), partially muscular (smooth muscle cells [SMCs] identifiable in less than three-fourths of the vessel circumference), or fully muscular (SMCs in more than three-fourths of the vessel circumference). The percentage of pulmonary vessels in each muscularization category was determined by dividing the number of vessels in that category by the total number counted in the relevant group of animals. For fully muscular vessels, video images were obtained and arterial diameters were measured using computerized image-analysis software. Percent wall thickness was then calculated as the diameter of the external elastic lamina minus the diameter of the internal lamina divided by the diameter of the external elastic lamina.
# p53 pathway [6] = test: p53 pathway activation in cultured human PA-SMCs (Western blotting, RT-qPCR); assay type: cell-based; details: 2.5 to 10 μM
# Protocol: as §4, §5, §2
# [7] = tested on: p53-deficient (p53−/−) mice; test: Chronic hypoxia-induced pulmonary hypertension in p53-deficient mice; assay type: in vivo
# Excerpt: Normoxic mice were kept in the same room, with the same light-dark cycle.
# [8] = chronic hypoxia mice, 6 to 25 mg/Kg/day intraperitoneally
# [9] = mice, associated with protective effects
Structure (SMILES),lung p21 mRNA (p53 pathway [1]),lung p21 protein (p53 pathway [1]),lung p53 protein (p53 pathway [1]),PH in SM22-5-HTT+ mice (SM22-5-HTT+ mice),percentage of beta-galactosidase stained cells (senescent cells) (cultured human PA-SMC [2]),lung p21 mRNA (p53 pathway [3]),lung p21 protein (p53 pathway [3]),lung p53 protein (p53 pathway [3]),cell proliferation stimulated by 50 ng/ml PDGF (cultured human PA-SMC [4]; 50 ng/ml PDGF),cell proliferation stimulated by 0.2% FCS (cultured human PA-SMC [4]; 0.2% FCS),"distal pulmonary artery muscularization [5, 8]","pulmonary hypertension [5, 8]","right ventricular hypertrophy [5, 8]","PA-SMC proliferation [5, 9]","apoptosis [5, 9]",mRNA level of p53 target gene Bax (p53 pathway [6]),mRNA level of p53 target gene PUMA (p53 pathway [6]),mRNA level of p53 target gene p21 (p53 pathway [6]),p53 protein (p53 pathway [6]),pulmonary hypertension induced by chronic hypoxia in p53-deficient mice [7]
"COc1ccc(C2=NC(c3ccc(Cl)cc3)C(c3ccc(Cl)cc3)N2C(=O)N2CCNC(=O)C2)c(OC(C)C)c1 (racemic) [Nutlin-3, (±)-4-[4,5-Bis(4-chlorophenyl)-2-(2-isopropoxy-4-methoxy-phenyl)-4,5-dihydro-imidazole-1-carbonyl]-piperazin-2-one]",marked increases,marked increases,marked increases,partially reversed,increase,marked increases,marked increases,marked increases,dose-dependent inhibition,dose-dependent inhibition,prevented,prevented,prevented,decrease,increase,increased,increased,increased,increased,
COc1ccc(C2=N[C@@H](c3ccc(Cl)cc3)[C@@H](c3ccc(Cl)cc3)N2C(=O)N2CCNC(=O)C2)c(OC(C)C)c1 [nutlin-3a],,,,,,,,,,,,,,,,,,,,remained unaffected
